We go through 14 molecules from patent US20240116985A1, “STAPLED PEPTIDES AND METHODS THEREOF” (priority 2020, published 2024).

This test concerns the target T1, full-length beta-Catenin (Uniprot ID P35222) (Homo sapiens, UniProt P35222).
T1 construct: 10 nM full-length beta-Catenin (Uniprot ID P35222)
T1 sequence (P35222 1-781): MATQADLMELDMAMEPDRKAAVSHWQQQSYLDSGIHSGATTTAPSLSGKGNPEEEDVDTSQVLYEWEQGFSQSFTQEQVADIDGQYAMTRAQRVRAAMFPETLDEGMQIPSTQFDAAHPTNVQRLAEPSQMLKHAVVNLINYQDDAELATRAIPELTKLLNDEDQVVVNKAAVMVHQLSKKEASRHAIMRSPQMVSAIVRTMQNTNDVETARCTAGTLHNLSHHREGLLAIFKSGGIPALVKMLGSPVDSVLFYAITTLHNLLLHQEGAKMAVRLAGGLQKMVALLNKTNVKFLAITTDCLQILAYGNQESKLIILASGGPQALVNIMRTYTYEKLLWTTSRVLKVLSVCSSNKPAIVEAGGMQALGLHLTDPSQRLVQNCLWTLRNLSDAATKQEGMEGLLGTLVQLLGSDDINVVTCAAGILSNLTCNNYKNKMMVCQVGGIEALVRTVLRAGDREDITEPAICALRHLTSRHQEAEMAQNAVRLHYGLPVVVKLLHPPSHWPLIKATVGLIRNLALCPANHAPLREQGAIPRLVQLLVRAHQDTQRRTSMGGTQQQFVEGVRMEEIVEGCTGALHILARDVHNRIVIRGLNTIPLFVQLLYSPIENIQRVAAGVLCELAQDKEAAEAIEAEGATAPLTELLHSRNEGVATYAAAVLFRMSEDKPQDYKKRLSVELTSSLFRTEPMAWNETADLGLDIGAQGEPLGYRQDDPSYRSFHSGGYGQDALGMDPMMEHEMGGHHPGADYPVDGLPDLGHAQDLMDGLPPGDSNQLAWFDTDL
Put plainly: Fluorescence polarization IC50 (beta-catenin / 5FAM-TCF4 10-53 competition). Type of test: binding. As to conditions: fluorescence polarization; read-out: beta-Catenin FP IC50. For orientation: Polarisation of emitted light reports the rotation of a fluorescent probe.

In general, IC50 refers to the midpoint of a concentration-inhibition curve. `CC(=O)N1CCC[C@]12CC=CCCCC1(CCCC=CCCCOC(=O)N3CC[C@@](C(=O)N[C@@H](Cc4cccs4)C(=O)N[C@@H](Cc4csc5ccccc45)C(=O)N[C@@H](CCO)C(N)=O)(C3)NC(=O)[C@H](CC(N)=O)NC(=O)[C@H](Cc3ccccc3)NC(=O)[C@H](C)NC(=O)[C@H](CCCCNC(C)C)NC(=O)[C@H](CCC(N)=O)NC(=O)[C@H](CC(=O)O)NC1=O)NC(=O)[C@H](CC1CCCCC1)NC(=O)[C@H](CC(N)=O)NC2=O` (stereo partly drawn) [I-2075, Ac-PL3-Asn-Cha-B5-Asp-Gln-iPrLys-Ala-Phe-Asn-PyrS2-2Thi-BztA-Hse-NH2]: the IC50 stood at 2.33 µM.
For the molecule `CC(=O)N1CCC[C@]12CC=CCCCC1(CCCC=CCCCOC(=O)N3CC[C@@](C(=O)N[C@@H](Cc4ccccc4C(F)(F)F)C(=O)N[C@@H](Cc4csc5ccccc45)C(=O)N[C@@H](C)C(N)=O)(C3)NC(=O)[C@H](CC(C)C)NC(=O)[C@H](Cc3ccccc3)NC(=O)[C@@H](C)NC(=O)[C@H](C)NC(=O)[C@H](Cc3cccc(C(=O)O)c3)NC(=O)[C@H](CC(=O)O)NC1=O)NC(=O)[C@H](CC(C)(C)C)NC(=O)[C@H](CC(=O)O)NC2=O` (stereo partly drawn) [I-2099, Ac-PL3-Asp-Npg-B5-Asp-3COOHF-Ala-dAla-Phe-Leu-PyrS2-2F3MeF-BztA-Ala-NH2], the IC50 turned out to be 0.325 µM.
In the case of `CC(=O)N1CCC[C@]12CC=CCCCC1(CCCC=CCCCOC(=O)N3CC[C@@](C(=O)N[C@@H](Cc4ccccc4C(F)(F)F)C(=O)N[C@@H](Cc4csc5ccccc45)C(=O)N[C@H](C)C(N)=O)(C3)NC(=O)[C@H](CC(C)C)NC(=O)[C@H](Cc3ccccc3)NC(=O)[C@@H](C)NC(=O)[C@H](C)NC(=O)[C@H](Cc3cccc(C(=O)O)c3)NC(=O)[C@H](CC(=O)O)NC1=O)NC(=O)[C@H](CC(C)(C)C)NC(=O)[C@H](CC(=O)O)NC2=O` (stereo partly drawn) [I-2101, Ac-PL3-Asp-Npg-B5-Asp-3COOHF-Ala-dAla-Phe-Leu-PyrS2-2F3MeF-BztA-dAla-NH2], the IC50 is 0.424 µM.
With `CC(=O)N1CCC[C@]12CC=CCCCC1(CCCC=CCCCOC(=O)N3CC[C@@](C(=O)N[C@@H](Cc4ccccc4)C(=O)N[C@@H](Cc4csc5ccccc45)C(=O)N[C@H](C(N)=O)[C@@H](C)O)(C3)NC(=O)[C@H](CC(N)=O)NC(=O)[C@H](Cc3ccccc3)NC(=O)[C@H](C)NC(=O)[C@H](CCCCNC(C)C)NC(=O)[C@H](CCC(N)=O)NC(=O)[C@H](CC(=O)O)NC1=O)NC(=O)[C@H](CC1CCCCC1)NC(=O)[C@H](CC(N)=O)NC2=O` (stereo partly drawn) [I-2112, Ac-PL3-Asn-Cha-B5-Asp-Gln-iPrLys-Ala-Phe-Asn-PyrS2-Phe-BztA-Thr-NH2], the IC50 turned out to be 0.501 µM.
Take `CC(=O)N1CCC[C@]12CC=CCCCC1(CCCC=CCCCOC(=O)N3CC[C@@](C(=O)N[C@@H](Cc4ccccc4)C(=O)N[C@@H](Cc4csc5ccccc45)C(=O)N[C@@H](CCC(N)=O)C(N)=O)(C3)NC(=O)[C@H](CC(N)=O)NC(=O)[C@H](Cc3ccccc3)NC(=O)[C@H](C)NC(=O)[C@H](CCCCNC(C)C)NC(=O)[C@H](CCC(N)=O)NC(=O)[C@H](CC(=O)O)NC1=O)NC(=O)[C@H](CC1CCCCC1)NC(=O)[C@H](CC(N)=O)NC2=O` (stereo partly drawn) [I-2113, Ac-PL3-Asn-Cha-B5-Asp-Gln-iPrLys-Ala-Phe-Asn-PyrS2-Phe-BztA-Gln-NH2]: the IC50 came to 0.164 µM.
Take `CC(=O)N1CCC[C@]12CC=CCCCC1(CCCC=CCCCOC(=O)N3CC[C@@](C(=O)N[C@@H](Cc4ccsc4)C(=O)N[C@@H](Cc4csc5ccccc45)C(=O)N[C@@H](CCC(N)=O)C(N)=O)(C3)NC(=O)[C@H](CCO)NC(=O)[C@H](Cc3cccc(C(=O)O)c3)NC(=O)[C@H](C)NC(=O)[C@H](C)NC(=O)[C@H](Cc3ccc(O)cc3)NC(=O)[C@H](CC(=O)O)NC1=O)NC(=O)[C@H](CC(C)(C)C)NC(=O)[C@H](CC(=O)O)NC2=O` (stereo partly drawn) [I-2124, Ac-PL3-Asp-Npg-B5-Asp-Tyr-Ala-Ala-3COOHF-Hse-PyrS2-3Thi-BztA-Gln-NH2]: the IC50 was 0.029 µM.
In the case of `CC(=O)N1CCC[C@]12CC=CCCCC1(CCCC=CCCCOC(=O)N3CC[C@@](C(=O)N[C@@H](Cc4ccsc4)C(=O)N[C@@H](Cc4csc5ccccc45)C(=O)N[C@@H](CCC(N)=O)C(N)=O)(C3)NC(=O)[C@H](CCO)NC(=O)[C@H](Cc3cccc(C(=O)O)c3)NC(=O)[C@H](C)NC(=O)[C@H](C)NC(=O)[C@H](Cc3ccc(O)cc3)NC(=O)[C@H](CC(=O)O)NC1=O)NC(=O)[C@H](CC(C)(C)C)NC(=O)[C@H](CC(=O)O)NC2=O` (stereo partly drawn) [I-2125, Ac-PL3-Asp-Npg-B5-Asp-Tyr-Ala-Ala-3COOHF-Hse-PyrS2-3Thi-BztA-Gln-NH2], the IC50 stood at 0.026 µM.
In the case of `CC(=O)N1CCC[C@]12CC=CCCCC1(CCCC=CCCCOC(=O)N3CC[C@@](C(=O)N[C@@H](Cc4ccsc4)C(=O)N[C@@H](Cc4csc5ccccc45)C(=O)N[C@@H](CCC(N)=O)C(N)=O)(C3)NC(=O)[C@H](CC(N)=O)NC(=O)[C@H](Cc3cccc(C(=O)O)c3)NC(=O)[C@H](C)NC(=O)[C@H](C)NC(=O)[C@H](Cc3c[nH]c4ccccc34)NC(=O)[C@H](CC(=O)O)NC1=O)NC(=O)[C@H](CC(C)(C)C)NC(=O)[C@H](CC(=O)O)NC2=O` (stereo partly drawn) [I-2127, Ac-PL3-Asp-Npg-B5-Asp-Trp-Ala-Ala-3COOHF-Asn-PyrS2-3Thi-BztA-Gln-NH2] it was 0.036 µM; in that of `CC(=O)N1CCC[C@]12CC=CCCCC1(CCCC=CCCCOC(=O)N3CC[C@@](C(=O)N[C@@H](Cc4ccsc4)C(=O)N[C@@H](Cc4csc5ccccc45)C(=O)N[C@@H](CCC(N)=O)C(N)=O)(C3)NC(=O)[C@H](CC(C)C)NC(=O)[C@H](Cc3cccc(C(=O)O)c3)NC(=O)[C@H](C)NC(=O)[C@H](C)NC(=O)[C@H](Cc3c[nH]c4ccccc34)NC(=O)[C@H](CC(=O)O)NC1=O)NC(=O)[C@H](CC(C)(C)C)NC(=O)[C@H](CC(=O)O)NC2=O` (stereo partly drawn) [I-2129, Ac-PL3-Asp-Npg-B5-Asp-Trp-Ala-Ala-3COOHF-Leu-PyrS2-3Thi-BztA-Gln-NH2], 0.105 µM.
Take `CC(=O)N1CCC[C@]12CC=CCCCC1(CCCC=CCCCOC(=O)N3CC[C@@](C(=O)N[C@@H](Cc4ccsc4)C(=O)N[C@@H](Cc4csc5ccccc45)C(=O)N[C@@H](CCC(N)=O)C(N)=O)(C3)NC(=O)[C@H](CC(N)=O)NC(=O)[C@H](Cc3ccccc3)NC(=O)[C@H](C)NC(=O)[C@H](C)NC(=O)[C@H]([C@@H](C)O)NC(=O)[C@H](CC(N)=O)NC1=O)NC(=O)[C@H](CC(C)(C)C)NC(=O)[C@H](CN(CC(=O)O)CC(F)(F)F)NC2=O` (stereo partly drawn) [I-2130, Ac-PL3-TfeGA-Npg-B5-Asn-Thr-Ala-Ala-Phe-Asn-PyrS2-3Thi-BztA-Gln-NH2]: the IC50 came out at 4.92 µM.
For `CC(=O)N1CCC[C@]12CC=CCCCC1(CCCC=CCCCOC(=O)N3CC[C@@](C(=O)N[C@@H](Cc4ccsc4)C(=O)N[C@@H](Cc4csc5ccccc45)C(=O)N[C@@H](CCC(N)=O)C(N)=O)(C3)NC(=O)[C@H](CC(N)=O)NC(=O)[C@H](Cc3ccccc3)NC(=O)[C@H](C)NC(=O)[C@H](C)NC(=O)[C@H]([C@@H](C)O)NC(=O)[C@H](CC(N)=O)NC1=O)NC(=O)[C@H](CC(C)(C)C)NC(=O)[C@H](CN(CC(=O)O)CC(F)(F)F)NC2=O` (stereo partly drawn) [I-2131, Ac-PL3-TfeGA-Npg-B5-Asn-Thr-Ala-Ala-Phe-Asn-PyrS2-3Thi-BztA-Gln-NH2], the IC50 was found to be 3.22 µM.
With `CC(=O)N1CCC[C@]12CC=CCCCC1(CCCC=CCCCOC(=O)N3CC[C@@](C(=O)N[C@@H](Cc4ccsc4)C(=O)N[C@@H](Cc4csc5ccccc45)C(=O)N[C@@H](CCC(N)=O)C(N)=O)(C3)NC(=O)[C@H](CC(N)=O)NC(=O)[C@H](Cc3ccccc3)NC(=O)[C@H](C)NC(=O)[C@H](C)NC(=O)[C@H]([C@@H](C)O)NC(=O)[C@H](CC(N)=O)NC1=O)NC(=O)[C@H](CC(C)(C)C)NC(=O)[C@H](CCCC(=O)O)NC2=O` (stereo partly drawn) [I-2133, Ac-PL3-Aad-Npg-B5-Asn-Thr-Ala-Ala-Phe-Asn-PyrS2-3Thi-BztA-Gln-NH2], the 50% inhibitory concentration (IC50) turned out to be 8.75 µM.
For the molecule `CC(=O)N1CCC[C@]12CC=CCCCC1(CCCC=CCCCOC(=O)N3CC[C@@](C(=O)N[C@@H](Cc4ccsc4)C(=O)N[C@@H](Cc4csc5ccccc45)C(=O)N[C@@H](CCC(N)=O)C(N)=O)(C3)NC(=O)[C@H](CC(N)=O)NC(=O)[C@H](Cc3ccccc3)NC(=O)[C@H](C)NC(=O)[C@H](C)NC(=O)[C@H]([C@@H](C)O)NC(=O)[C@H](CC(N)=O)NC1=O)NC(=O)[C@H](CC(C)(C)C)NC(=O)[C@H](Cc1cccc(C(=O)O)c1)NC2=O` (stereo partly drawn) [I-2135, Ac-PL3-3COOHF-Npg-B5-Asn-Thr-Ala-Ala-Phe-Asn-PyrS2-3Thi-BztA-Gln-NH2], the IC50 came to 3.41 µM.
For `CC(=O)N1CCC[C@]12CC=CCCCC1(CCCC=CCCCOC(=O)N3CC[C@@](C(=O)N[C@@H](Cc4ccsc4)C(=O)N[C@@H](Cc4csc5ccccc45)C(=O)N[C@@H](Cc4c[nH]c5ccccc45)C(N)=O)(C3)NC(=O)[C@H](CC(N)=O)NC(=O)[C@H](Cc3ccccc3)NC(=O)[C@H](C)NC(=O)[C@H](C)NC(=O)[C@H]([C@@H](C)O)NC(=O)[C@H](CC(N)=O)NC1=O)NC(=O)[C@H](CC(C)(C)C)NC(=O)[C@H](CC(=O)O)NC2=O` (stereo partly drawn) [I-2138, Ac-PL3-Asp-Npg-B5-Asn-Thr-Ala-Ala-Phe-Asn-PyrS2-3Thi-BztA-Trp-NH2] the value was 1.01 µM.
